Measured values reported in patent publication US11684614B2, “Formulations of hydroxypyridonate actinide/lanthanide decorporation agents” (priority 2017, dated 2023).
“And” between values parts separate entries of the source, which are not always exact repeats. Equal values may be shown once.

Assays:
[1] = molecular target: CYP2C9 (Homo sapiens, UniProt P11712); test: CYP inhibition; type: in vitro ADME
[2] = molecular target: CYP3A4 (Homo sapiens, UniProt P08684); test: CYP inhibition; type: in vitro ADME
[3] = Single oral dose GLP safety (toxicology) study in beagle dogs; type: in vivo
Procedure: The clinical formulation was tested in a single dose GLP toxicology and cardiovascular safety pharmacology study in beagle dogs.
Based on this study, the MTD in dogs after a single oral administration is considered to be greater than 150 mg/kg.

[4] = Double-Sink PAMPA permeability assay with permeation enhancers (flux ratio); type: in vitro ADME; details: compared with reference compound Ranitidine
Procedure: The objective of the analytical study described in Part C of this report was to assess the feasibility of enhancing the permeability of the active pharmaceutical ingredient 3,4,3-L1(1,2-HOPO) using oral permeation enhancers. Evaluation was performed using an in vitro pK assay based on the Double-Sink™ PAMPA technology developed by pION, Inc.
The permeability enhancement study was performed in two stages. In the first stage (TABLE 10.1), 15 formulations were prepared and screened. The second stage (TABLE 10.2) was performed to refine the concentrations of the permeability enhancers that seemed to display permeability enhancement in the first screening. The screening conditions for both stages are listed below. The sample solutions were stored throughout the study in 20 mL clear scintillation glass vials with polypropylene cap and pulp foil liner, wrapped in aluminum foil.
• Test Solutions: Vehicles containing the permeation enhancers were prepared by weighing the adequate quantity of enhancer and dissolving it into 100 mL of purified water to reach the designated concentration. Test solutions were then prepared by weighing 10 mg of 3,4,3-L1(1,2-HOPO), dissolving it into 10 mL of each of the vehicles to reach a concentration of 1 mg/mL (purified water was used for the control solution). The final pH and clarity of each solution were recorded. […]

[5] = Distribution coefficient measurement; type: physicochemical; details: for Dow / Log(Dow): listed as 3,4,3-LI(1,2-HOPO)
[6] = Day 15, the one high-dose female with renal findings
[7] = Buffering Agent 1: 7.5 E−02 M HCl, pH 1.18, samples A11-A13
[8] = Buffering Agent 1: 7.5 E−02 M HCl, pH 1.20, samples B11-B13
[9] = Buffering Agent 2: 7.5 E−03 M HCl, pH 2.15, samples A11-A13
[10] = Buffering Agent 2: 7.5 E−03 M HCl, pH 2.16, samples B11-B13
[11] = Buffering Agent 3: 7.5 E−04 M HCl, pH 3.21, samples A31-A33
[12] = Buffering Agent 4: 1 E−02 M Acetic Acid, pH 4.19, samples A41-A43
[13] = Buffering Agent 5: 1 E−02 M Acetic Acid, pH 5.13, samples A51-A53
[14] = Buffering Agent 5: 1 E−02 M Acetic Acid, pH 5.20, samples B51-B53
[15] = Buffering Agent 6: 1 E−02 M MES, pH 6.30, samples A61-A63
[16] = Buffering Agent 7: 1 E−02 M HEPES, pH 6.75, samples A71-A73
[17] = Buffering Agent 8: 1 E−02 M HEPES, pH 7.42, samples A81-A83
[18] = Buffering Agent 9: 1 E−02 M HEPES, pH 8.00, samples A91-A93

CYP2C9, sequence (P11712 whole entry): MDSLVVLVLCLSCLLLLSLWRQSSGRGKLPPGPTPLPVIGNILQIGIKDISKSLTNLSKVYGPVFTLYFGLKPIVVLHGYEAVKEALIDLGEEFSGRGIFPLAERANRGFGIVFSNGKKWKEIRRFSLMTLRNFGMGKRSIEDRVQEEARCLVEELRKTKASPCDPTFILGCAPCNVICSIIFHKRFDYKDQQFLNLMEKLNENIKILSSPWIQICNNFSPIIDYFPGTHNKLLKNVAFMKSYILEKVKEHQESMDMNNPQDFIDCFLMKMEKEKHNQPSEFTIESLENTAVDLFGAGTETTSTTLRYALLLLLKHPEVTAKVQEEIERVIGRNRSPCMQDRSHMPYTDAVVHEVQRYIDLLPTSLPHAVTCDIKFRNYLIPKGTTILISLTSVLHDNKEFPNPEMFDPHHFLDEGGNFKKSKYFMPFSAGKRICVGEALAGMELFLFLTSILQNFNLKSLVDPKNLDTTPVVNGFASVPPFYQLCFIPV
CYP3A4, sequence (P08684 whole entry): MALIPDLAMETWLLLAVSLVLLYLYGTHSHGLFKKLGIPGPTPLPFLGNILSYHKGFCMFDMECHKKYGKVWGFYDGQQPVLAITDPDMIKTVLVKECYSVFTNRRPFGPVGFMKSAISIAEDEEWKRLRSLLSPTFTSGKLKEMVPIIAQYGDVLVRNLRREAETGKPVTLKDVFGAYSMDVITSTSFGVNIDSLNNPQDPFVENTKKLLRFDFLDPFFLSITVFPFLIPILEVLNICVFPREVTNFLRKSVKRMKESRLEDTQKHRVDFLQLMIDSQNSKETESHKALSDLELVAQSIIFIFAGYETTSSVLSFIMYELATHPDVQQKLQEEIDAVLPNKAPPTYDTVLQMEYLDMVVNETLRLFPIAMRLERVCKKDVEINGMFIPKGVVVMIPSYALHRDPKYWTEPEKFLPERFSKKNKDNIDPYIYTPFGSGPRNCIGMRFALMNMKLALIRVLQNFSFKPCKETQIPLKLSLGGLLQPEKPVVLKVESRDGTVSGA

In the case of O=C(NCCCN(CCCCN(CCCNC(=O)c1cccc(=O)n1O)C(=O)c1cccc(=O)n1O)C(=O)c1cccc(=O)n1O)c1cccc(=O)n1O [3,4,3-L1(1,2-HOPO)], the “inhibition of CYP2C9 activity” value [1] is reported as “did not inhibit”, the “inhibition of CYP3A4 activity” value [2] is reported as “did not inhibit” and the “time of slight to moderate emesis post-dose” value ([3]; 3,4,3-L1(1,2-HOPO) treatment groups) is reported as less than 2 h. For the same compound, the “changes in body weight, food consumption, ophthalmology, cardiovascular assessments, clinical pathology, urinalysis, gross necropsy observations, or organ weights” value ([3]; 37.5, 75, or 150 mg/kg) was “no meaningful changes”, the “increase in BUN relative to pre-test” value [3, 6] was 1.8 fold and the “increase in CR relative to pre-test” value [3, 6] was 1.3 fold. The “serum iron, unsaturated iron binding capacity, total iron binding capacity, magnesium, and ferritin” value ([3]; Days 2 or 15, treated groups compared with controls) was “none of these parameters were meaningfully altered”, the Post-dose emesis ([3]; high dose group) was 3 dogs out of 12 dogs per group and the “Extreme diarrhea, incidence” value ([3]; high-dose (150 mg/kg) males, Day 1) was 33%. For the same compound, the “Slight diarrhea, incidence” value ([3]; high-dose group (150 mg/kg) females, Day 1) was 33%, the “Slight diarrhea, incidence” value ([3]; high-dose group (150 mg/kg) males, Day 1) was 17% and the “Renal findings (tubular casts and dilation, interstitial hemorrhage, hemosiderin pigmentation), incidence” value ([3]; high-dose group (150 mg/kg), Day 15 recovery sacrifice) was 1 of 3. The Post-dose emesis ([3]; low dose group) was 1 dogs out of 12 dogs per group, the Diarrhea ([3]; low-dose group (37.5 mg/kg)) was “absent” and the Post-dose emesis ([3]; mid dose group) was 2 dogs out of 12 dogs per group. The “Slight diarrhea, incidence” value ([3]; mid-dose group (75 mg/kg) females, Day 1) was 67%, the MTD ([3]; single oral administration, dogs) was “greater than 150 mg/kg” and the “permeability (PAMPA)” value [4] was “very low permeability”. For the same compound, the Dow [5, 7] was 0.122 and 0.115 and 0.112, the “Log(Dow)” value [5, 7] was −0.915 and −0.938 and −0.952 and the “Log(Dow), unlabelled summary row (mean of samples)” value (“Log(Dow), unlabelled summary row” for short) ([5]; Buffering Agent 1: 7.5 E−02 M HCl, pH 1.18, series A) was −0.935. The Dow [5, 8] was 0.318 and 0.327 and 0.285, the “Log(Dow)” value [5, 8] was −0.497 and −0.485 and −0.545 and the “Log(Dow), unlabelled summary row” value ([5]; Buffering Agent 1: 7.5 E−02 M HCl, pH 1.20, series B) was −0.509. For the same compound, the Dow [5, 9] was 0.093 and 0.105 and 0.110, the “Log(Dow)” value [5, 9] was −1.031 and −0.980 and −0.958 and the “Log(Dow), unlabelled summary row” value ([5]; Buffering Agent 2: 7.5 E−03 M HCl, pH 2.15, series A) was −0.990. For the same compound, the Dow [5, 10] was 0.503 and 0.491 and 0.469, the “Log(Dow)” value [5, 10] was −0.299 and −0.309 and −0.329 and the “Log(Dow), unlabelled summary row” value ([5]; Buffering Agent 2: 7.5 E−03 M HCl, pH 2.16, series B) was −0.312. The “Log(Dow), unlabelled summary row” value ([5]; Buffering Agent 3: 7.5 E−04 M HCl, pH 3.13, series B) was −1.499, the Dow [5, 11] was 0.180 and 0.170 and 0.184 and the “Log(Dow)” value [5, 11] was −0.744 and −0.769 and −0.735. For the same compound, the “Log(Dow), unlabelled summary row” value ([5]; Buffering Agent 3: 7.5 E−04 M HCl, pH 3.21, series A) was −0.750, the “Log(Dow), unlabelled summary row” value ([5]; Buffering Agent 4: 1 E−02 M Acetic Acid, pH 4.00, series B) was −1.566 and the Dow [5, 12] was 0.076 and 0.061 and 0.068. The “Log(Dow)” value [5, 12] was −1.119 and −1.218 and −1.166, the “Log(Dow), unlabelled summary row” value ([5]; Buffering Agent 4: 1 E−02 M Acetic Acid, pH 4.19, series A) was −1.168 and the Dow [5, 13] was 0.044 and 0.027 and 0.050. The “Log(Dow)” value [5, 13] was −1.360 and −1.564 and −1.299, the “Log(Dow), unlabelled summary row” value ([5]; Buffering Agent 5: 1 E−02 M Acetic Acid, pH 5.13, series A) was −1.408 and the Dow [5, 14] was 0.056 and 0.082 and 0.103. For the same compound, the “Log(Dow)” value [5, 14] was −1.251 and −1.086 and −0.989, the “Log(Dow), unlabelled summary row” value ([5]; Buffering Agent 5: 1 E−02 M Acetic Acid, pH 5.20, series B) was −1.109 and the “Log(Dow)” value ([5]; Buffering Agent 6: 1 E−02 M MES, pH 6.15, samples B61-B63) was −1.374 and −1.645. For the same compound, the “Log(Dow), unlabelled summary row” value ([5]; Buffering Agent 6: 1 E−02 M MES, pH 6.15, series B (B61 prints #NUM!)) was −1.510, the Dow [5, 15] was 0.064 and 0.077 and 0.082 and the “Log(Dow)” value [5, 15] was −1.191 and −1.113 and −1.086. The “Log(Dow), unlabelled summary row” value ([5]; Buffering Agent 6: 1 E−02 M MES, pH 6.30, series A) was −1.130, the Dow [5, 16] was 0.150 and 0.120 and 0.105 and the “Log(Dow)” value [5, 16] was −0.824 and −0.921 and −0.977. The “Log(Dow), unlabelled summary row” value ([5]; Buffering Agent 7: 1 E−02 M HEPES, pH 6.75, series A) was −0.908, the “Log(Dow), unlabelled summary row” value ([5]; Buffering Agent 7: 1 E−02 M HEPES, pH 6.83, series B) was −1.680 and the Dow [5, 17] was 0.130 and 0.132 and 0.107. The “Log(Dow)” value [5, 17] was −0.885 and −0.879 and −0.970, the “Log(Dow), unlabelled summary row” value ([5]; Buffering Agent 8: 1 E−02 M HEPES, pH 7.42, series A) was −0.912 and the “Log(Dow), unlabelled summary row” value ([5]; Buffering Agent 8: 1 E−02 M HEPES, pH 7.46, series B) was −1.173. For the same compound, the Dow [5, 18] was 0.110 and 0.074 and 0.132, the “Log(Dow)” value [5, 18] was −0.957 and −1.128 and −0.879 and the “Log(Dow), unlabelled summary row” value ([5]; Buffering Agent 9: 1 E−02 M HEPES, pH 8.00, series A) was −0.988. For the same compound, the “Log(Dow), unlabelled summary row” value ([5]; Buffering Agent 9: 1 E−02 M HEPES, pH 8.00, series B) was −1.920.
